Molecules are shown by their SMILES.

In this test the test system is HSV-I infection around the mouth. The experiment in a line: Initial studies: HSV-I infection around the mouth treated with ethyl cyanoacrylate (Examples 1-3). It is filed as in vivo, human. Here is the method: Examples 1-3 are initial studies describing three patient groups at different stages of development of HSV-I infection around the mouth which has been treated with ethyl cyanoacrylate (LOCTITE 411, Henkel Loctite Adhesive Ltd.). The infected areas were applied about ⅓ drop of liquid ethyl cyanoacrylate by means of a toothpick and the polymerization was allowed to pass off.
Patient group 1 consisted of three patients without visible symptoms. The group was treated prophylactically as mentioned above under latent HSV-I infection, pronounced prickling and itching in the mucous membrane at the lip being the cause of the treatment.
Patient group 2 consisted of 2 patients with visible blisters in the corner of the mouth due to infection with HSV-I. The group was treated initially for 3 hours, after which the ethyl cyanoacrylate coat with content of virus and tissue was removed. The treatment was repeated 2 times for 24 hours, after which the coat was removed.
Patient group 3 consisted of 4 patients all having large suppurating crusts in a large area around the mouth. The group were initially treated by applying liquid ethyl cyanoacrylate which was allowed to polymerise. The polymer coat with adhering crust was removed immediately after polymerization, and the treatment repeated 4 times for 24 hours.

On to `C=C(C#N)C(=O)OCC` [ethyl cyanoacrylate], for which the “development of visible blisters or wounds” value (Patient group 1: three patients, latent HSV-I infection without visible symptoms, prophylactic treatment, coat removed after overnight) is “no patients in Patient group 1 developed visible blisters or wounds”. Further, under “Patient group 2: 2 patients with visible blisters in corner of mouth, 3 hours, then repeated 2 times for 24 hours”, the “visible traces, symptoms and scar formation after treatment” value was “no visible traces after the outbreak and both patients were free of symptoms without scar formation”. Moreover, the “symptoms and scar formation after treatment” value reads like this: (Patient group 3, fourth patient, treated for further 24 hours) “subsequently had no symptoms or scar formation”; (Patient group 3: 4 patients with large suppurating crusts, crust pulled off, treatment repeated 4 times for 24 hours) “three patients had no symptoms or scar formation”.

The values are drawn from US20040175353A1, “Cyanoacrylate compositions for prophylactic or therapeutic treatment of diseases manifesting themselves in and/or damage cutaneous tissue” (priority 2001, published 2004).
